Read-outs that look alike come from different tables or passages of the source.
Assays:
[1] = Lapatinib pharmacokinetics in rat blood plasma (BP), HPLC-MS/MS, noncompartmental analysis; assay type: in vivo, rats; conditions: for MRT last: read-out: MRT0-t
Description: This study was conducted on rats, which are a promising model to predict P-gp-based drug-drug interactions at the human BBB [15]. The animals were allowed to acclimate for one week before the beginning of the experiments. Adult male Wistar-strain rats (weight 470–525 g) were used in the study. The animals were maintained under standard breeding conditions with a 12/12 h light-dark cycle (lights on at 6.00 a.m., lights off at 6.00 p.m.) at constant room temperature (23 ± 2 °C), relative humidity (55 ± 10%) and ad libitum access to food and water. The experimental protocol for this study was reviewed and approved by the Local Ethics Committee. To obtain consistent data, the study was based on the required minimum number of animals and observation time. […] Three rats were used at each time point (n = 3). In total, the research was conducted on 66 animals (n = 33 in the experimental group and n = 33 in the control group).
Elacridar was freshly dissolved in a vehicle at an initial concentration of 20 mg/mL. […] A volume of 80 μL of blood was collected from each rat by cutting off a piece of its tail. The blood samples were collected into heparinized test tubes at the following time points: […], and they were immediately centrifuged at 2880 g for 10 min at 4 °C. The anaesthetized rats (anaesthetized by intramuscular administration of 50 mg/kg ketamine and 10 mg/kg xylazine) were prepared for cisterna magna puncture. The hair over the puncture was removed and the skin was disinfected with alcohol. The animals were placed in a recumbent position with an elevated rear part of the body. The animals’ heads were slightly flexed and immobilized with the operator’s left hand. The space between the occiput rostrally and the atlas (C1) of the spinal column caudally was gently palpated with the left thumb. A 0.7 × 20 G needle with polyethylene tubing (Terumo Poland, Warsaw, Poland) was gently inserted at an approximate angle of 80–90° through the skin with the operator’s right hand into the midsagittal region. The moment that dura mater perforation was perceptible, a small amount of CSF was found in the needle tubing. To sample additional CSF, a 1 mL insulin syringe (Becton Dickinson, Warsaw, Poland) was used to collect 80–120 μL of CSF by very gentle aspiration. Only clear CSF was collected for further analysis. […] The animals’ brains were immediately dissected, washed in 0.9% NaCl and divided along the longitudinal axis. One of the brain hemispheres was again rinsed three times with 5 mL of 0.9% NaCl, weighed and homogenized with 0.9% NaCl (4 mL per 1 g of BT) in an Ultra-Turrax homogenizer (Witko, Łódź, Poland). The homogenate was then centrifuged at 4500 g for 10 min. All samples of the rat BP, CSF, and BT homogenate supernatant were stored at −80 °C until analysis.
The chromatographic analysis was conducted using a 1260 Infinity system (Agilent Technologies, Santa Clara, USA) equipped with a Kinetex® C18 column (50 × 4.6 mm, 2.6 μm, Phenomenex, Torrance, USA), which was maintained at 35 °C. The mobile phase consisted of 0.1% formic acid (v/v) in water with 5 mM ammonium formate (solvent A) and acetonitrile with 10% phase A (v/v, solvent B). The analyte and internal standard (IS, erlotinib) were eluted using a gradient run of 10 min as follows: 95% A at 0–2 min; 95%–5% A at 2–4 min; 5% A at 4–5 min; 5%–95% A at 5–6 min; 95% A at 6–10 min. The flow rate and injection volume were set at 0.7 mL/min and 10 μL, respectively. The needle was washed for 30 s in a mixture of acetonitrile, methanol, isopropanol, water, and formic acid (50:20:15:15:0.25, v/v/v/v/v).

[2] = Stability of lapatinib in QC samples, BP samples and standard solutions; assay type: physicochemical; conditions: for stability, deviation: low and high QC samples
From the text: Data acquisition and processing were controlled with Analyst 1.5.2 software (Sciex, Framingham, USA).

[3] = Lapatinib pharmacokinetics and uptake in rat cerebrospinal fluid (CSF); assay type: in vivo, rats; conditions: male, Wistar, po, 100 mg/kg, lapatinib p.o. 100 mg/kg alone, read-out: Clapatinib in CSF, single rat
[4] = cited from earlier work
[5] = design: method as in PMID 25547867; conditions: cited from earlier work
[6] = blood plasma, lapatinib 100 mg/kg oral + 5 mg/kg elacridar (IE+L)
[7] = male, Wistar, rat, plasma, oral, lapatinib 100 mg/kg + elacridar, read-out: Clapatinib in BP, S
[8] = male, Wistar, rat, plasma, oral, lapatinib 100 mg/kg + elacridar, read-out: Clapatinib in BP, single rat
[9] = male, Wistar, rat, plasma, po, 100 mg/kg, blood plasma, lapatinib 100 mg/kg oral + 5 mg/kg elacridar (IE+L)
[10] = male, Wistar, rat, plasma, po, 100 mg/kg, blood plasma, lapatinib 100 mg/kg oral alone (IIL)
[11] = male, Wistar, rat, plasma, po, 100 mg/kg, lapatinib p.o. 100 mg/kg alone, read-out: Clapatinib in BP, S (medium value)
[12] = male, Wistar, rat, plasma, po, 100 mg/kg, lapatinib p.o. 100 mg/kg alone, read-out: Clapatinib in BP, single rat

plasma AUC0-t higher in IE+L than in IIL ([1]; BP, IE+L vs IIL group): 78.7%
plasma AUC0-∞ higher in IE+L than in IIL ([1]; BP, IE+L vs IIL group): 155.6%
plasma Cmax greater in IE+L than in IIL ([1]; BP, IE+L vs IIL group): 6.3%
t0.5 prolongation when coadministered with elacridar ([1]; BP, IE+L vs IIL group): 5.2 fold
Tmax [1, 6]: 2.50 ± 0.71 h
t0.5 [1, 6]: 28.77 ± 6.00 h
concentration of lapatinib after 24 h ([1]; each matrix sample (BP, CSF, BT), IIL group): undetectable
concentration at 0.25 h [1, 7]: 780 ng/mL
concentration at 0.25 h [1, 8]: 700 ng/mL
concentration at 0.5 h [1, 7]: 1520 ng/mL
concentration at 0.5 h [1, 8]: 1680 ng/mL
concentration at 1 h [1, 7]: 1980 ng/mL
concentration at 1 h [1, 8]: 2050 ng/mL
concentration at 2 h [1, 7]: 3070 ng/mL
concentration at 2 h [1, 8]: 2100 ng/mL
concentration at 3 h [1, 7]: 2460 ng/mL
concentration at 3 h [1, 8]: 2040 ng/mL
concentration at 4 h [1, 7]: 1310 ng/mL
concentration at 4 h [1, 8]: 1580 ng/mL
concentration at 6 h [1, 7]: 1340 ng/mL
concentration at 6 h [1, 8]: 1360 ng/mL
concentration at 8 h [1, 7]: 1780 ng/mL
concentration at 12 h [1, 7]: 2300 ng/mL
concentration at 12 h [1, 8]: 2280 ng/mL
concentration at 24 h [1, 7]: 1230 ng/mL
concentration at 24 h [1, 8]: 1300 ng/mL
Cmax ([1]; male, Wistar, rat, plasma, po, 100 mg/kg): 3260 ± 810 ng/mL
AUC(0-inf) [1, 9]: 95100 ng·h/mL
AUC(0-t) [1, 9]: 43600 ng·h/mL
k el [1, 9]: 5.56e-06 s⁻¹
MRT last [1, 9]: 11.1 ± 0.5 h
AUC(0-inf) [1, 10]: 37200 ng·h/mL
AUC(0-t) [1, 10]: 24400 ng·h/mL
k el [1, 10]: 3.61e-05 s⁻¹
MRT last [1, 10]: 5.7 ± 0.43 h
concentration at 0.25 h [1, 11]: 650 ng/mL
concentration at 0.25 h [1, 12]: 530 ng/mL
concentration at 0.5 h [1, 11]: 1330 ng/mL
concentration at 0.5 h [1, 12]: 1210 ng/mL
concentration at 1 h [1, 11]: 2050 ng/mL
concentration at 1 h [1, 12]: 1830 ng/mL
concentration at 2 h [1, 11]: 2210 ng/mL
concentration at 2 h [1, 12]: 1950 ng/mL
concentration at 3 h [1, 11]: 2380 ng/mL
concentration at 4 h [1, 11]: 3260 ng/mL
concentration at 4 h [1, 12]: 3830 ng/mL
concentration at 6 h [1, 11]: 1940 ng/mL
concentration at 6 h [1, 12]: 1560 ng/mL
concentration at 8 h [1, 11]: 1940 ng/mL
concentration at 8 h [1, 12]: 2130 ng/mL
concentration at 12 h [1, 11]: 1500 ng/mL
Tmax ([1]; male, Wistar, rat, plasma, po, 100 mg/kg, read-out: tmax): 4 h
postpreparative stability, change in the concentration ([2]; BP samples and standard solutions, 24 h and 48 h in the autosampler at 4 °C): < 15%
stability, deviation ([2]; three freeze-thaw cycles at −80 °C): < 5%
stability, deviation ([2]; three months of storage at −80 °C): < 15%
concentration at 0.25 h [3]: 4.47 ng/mL
Structure (SMILES): CS(=O)(=O)CCNCc1ccc(-c2ccc3ncnc(Nc4ccc(OCc5cccc(F)c5)c(Cl)c4)c3c2)o1 [lapatinib, N-{3-Chloro-4-[(3-fluorobenzyl)oxy]phenyl}-6-[5-({[2-(methylsulfonyl)ethyl]amino}methyl)-2-furyl]-4-quinazolinamine]
binds with plasma proteins [4]: 99%
patients with BM responding to lapatinib therapy [5]: 2.6–6.0%

From PMC7211195 (Investigational New Drugs, 2019)
